Source: article doi:10.1101/2024.06.10.598330v1 (biorxiv, 2024)

Assays:
[1] = system: 'Concord' ortholog of 4g02123; assay: MTase-Glo luminescence methyltransferase assay; type: biochemical, Vitis labrusca; conditions: 20 μM SAM, pH 8.0, 37 °C
[2] = target: T1, Vv4g02169 (Vitis vinifera, UniProt D7SNV7); assay: MTase-Glo luminescence methyltransferase assay; type: biochemical; conditions: 150 μM SAM, pH 8.0, 37 °C
T1 sequence (D7SNV7 1-364): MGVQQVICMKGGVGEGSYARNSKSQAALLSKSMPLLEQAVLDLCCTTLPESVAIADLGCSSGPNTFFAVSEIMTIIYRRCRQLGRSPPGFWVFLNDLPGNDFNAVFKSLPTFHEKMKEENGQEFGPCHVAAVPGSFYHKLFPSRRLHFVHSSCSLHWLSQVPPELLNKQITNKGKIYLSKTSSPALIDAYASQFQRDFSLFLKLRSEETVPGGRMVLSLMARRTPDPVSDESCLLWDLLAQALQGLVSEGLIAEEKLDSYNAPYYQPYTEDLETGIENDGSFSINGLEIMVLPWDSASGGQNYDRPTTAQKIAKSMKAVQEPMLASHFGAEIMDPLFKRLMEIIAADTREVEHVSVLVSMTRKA

[3] = system: Vv4g02123; conditions: 20 μM SAM, pH 8.0, 37 °C; substrate inhibition fit

Structure (SMILES) | Km [1] [µM] | Km [2] [µM] | Km ([1]; substrate inhibition fit) [µM] | Km [3] [µM]
Nc1ccccc1C(=O)O [anthranilate] | 47 | 160 | – | –
O=C(O)c1ccccc1 [benzoic acid] | 23 | – | – | –
O=C(O)c1ccccc1O [salicylic acid] | – | – | 3.8 | –
CNc1ccccc1C(=O)O [N-methyl AA] | 120 | – | – | 12
